Results taken from US11834414B2, “1-methyl-4-[(4-phenylphenyl)sulfonylmethyl]cyclohexyanol and 1-methyl-4-[[4-(2-pyridyl)phenyl]sulfonylmethyl]cyclohexanol compounds and their therapeutic use” (Modern Biosciences Limited, priority 2018, dated 2023).

Legend:
CYP3A4 = CYP3A4 (Homo sapiens (Human), UniProt P08684); experiment: Human Cytochrome P450 Inhibition Assay (Bactosomes); assay type: in vitro ADME; settings: recombinant Bactosomes, 10 minutes, 37° C.
[1] = system: Thp1 human monocytic cells; experiment: Thp1 Monocyte ATP Production Assay; assay type: cell-based; settings: for IC50: Thp1 cells, 24 hour incubation, ATPLite, 9-point range 10 μM to 10 nM, mean of 2 independent experiments; for potency in the Thp1 monocytic ATP assay (in words): compared to the reference compounds
Protocol: In vitro potency of test compounds was determined by incubation with Thp1 human monocytic cells and subsequent determination of Adenosine TriPhosphate (ATP) levels using firefly luciferase.
ATP is present in all metabolically active cells. When cells lose integrity, their ability to synthesise ATP is rapidly lost. […] See, e.g., Kang et al., 2015; Jiang et al., 2013. Levels of ATP can be monitored using a system based on firefly (Photinus pyralis) luciferase (see, e.g., Auld et al., 2009) using commercially available kits. A system known as
ATPlite™ was using to measure effects of the test compounds on cellular viability in vitro. This one-step assay system is an adenosine triphosphate (ATP) monitoring system based on the production of light caused by the reaction of ATP from the cells with added luciferase and D-luciferin, as illustrated in the reaction scheme below:
The emitted light is proportional to the ATP concentration.
Thp1 cells were plated at 112500 cells per well in 125 μL RPMI-1640 (no glucose) with 1% FBS in 96-well plates. Test compounds were prepared as 100 mM solutions in DMSO. These stock solutions were diluted in DMSO and then diluted 1000× in culture medium (RPMI) before being added directly to the wells so as to give the desired final compound concentration. After a 24 hour incubation at 37° C./5% CO2, ATPLite™ (Perkin Elmer) was added to each well (1:10 v/v, 10 μL). The plate was then incubated at room temperature for 5 minutes and the emitted light was quantified on Viewlux with a measurement time of 0.3 seconds and binning 4×4.
The average results for each test compound were expressed as a percent (%) of the average control value reflecting cell viability. The average values across the concentrations tested were then plotted and the IC50 for was calculated by fitting the data to a 4-parameter IC50 equation using software from Graf it (Erithacus Software). Each experiment was repeated twice and the data are presented as the mean IC50 from both experiments.

CYP1A2 = CYP1A2 (Homo sapiens (Human), UniProt P05177); experiment: Human Cytochrome P450 Inhibition Assay (Bactosomes)
CYP2C19 = CYP2C19 (Homo sapiens (Human), UniProt P33261); experiment: as above; assay type: in vitro ADME; settings: recombinant Bactosomes, 10 minutes, 37° C.
[2] = Human hepatocyte stability; assay type: in vitro ADME; settings: human, pooled human hepatocytes, human hepatocytes, 1 μM, 60 minute incubation; for hepatocyte CLint at 1 μM: read-out: Human Clint (uL/min/million cells); for half-life at 1 μM: read-out: Human t1/2
Protocol: (§1) Metabolic stability of test compounds was measured by determination of the rate of disappearance of the compound when incubated in the presence of rat or human hepatocytes, a primary source of the most important enzymes (cytochrome P450s) involved in drug metabolism. Study of drug stability in the presence of primary hepatocytes is accepted as a valuable model permitting rapid prediction of in vivo drug stability.
(§2) Rat or human hepatocytes were obtained from a commercial source and viability was assessed using a trypan blue solution prior to use. Test compounds (final concentration 1 μM, 0.1% DMSO, 0.9% acetonitrile) or a marker (diclofenac or diltiazem, final assay concentration 1 μM, 0.1% DMSO, 0.9% acetonitrile) were incubated with pooled hepatocytes for a 60 minute period and samples removed at up to 6 time points and analysed by LC-MS/MS for the presence/amount of test compounds.
(§3) Each compound was incubated for 0, 5, 15, 30, 45, or 60 minutes. The reactions were stopped by the addition of methanol containing an internal standard (1 μM Tolbutamide) at the appropriate time points, mixed and placed at −20° C. for ≥1 hour to quench and allow protein to precipitate. All samples were centrifuged (2500×g, 20 minutes, 4° C.). The aliquots were analysed using LC-MS/MS. Reactions were performed in duplicate at 37° C.
(§4) Data were processed, and the results plotted as In(concentration) vs. time. The elimination rate constant (slope of the regression line, k) was calculated using the following formula, where C(t) is the concentration at time t and C(0) is the starting concentration:
(§5) The half-life (t1/2) was calculated using the following formula: […]
(§6) The intrinsic clearance (CIint) was calculated using the following formula, where [cell] is the hepatocyte concentration in the assay: […]

CYP2C9 = CYP2C9 (Homo sapiens (Human), UniProt P11712); experiment: Human Cytochrome P450 Inhibition Assay (Bactosomes); assay type: in vitro ADME; settings: recombinant Bactosomes, 10 minutes, 37° C.
CYP2D6 = CYP2D6 (Homo sapiens (Human), UniProt P10635); experiment: as above; assay type: in vitro ADME; settings: recombinant Bactosomes, 10 minutes, 37° C.
human hepatocytes = experiment: Human hepatocyte stability; assay type: in vitro ADME; settings: hepatocyte stability, compared to the reference compounds
Protocol: as §1, §2, §3, §4, §5, §6

Rat hepatocyte stability = assay type: in vitro ADME; settings: rat, pooled rat hepatocytes, 60 minute incubation; for hepatocyte CLint at 1 μM: read-out: Rat Clint (μL/min/million cells); for half-life at 1 μM: read-out: Rat t1/2
Protocol: as §1, §2, §3, §4, §5, §6

CYP2C9, sequence (P11712 whole entry): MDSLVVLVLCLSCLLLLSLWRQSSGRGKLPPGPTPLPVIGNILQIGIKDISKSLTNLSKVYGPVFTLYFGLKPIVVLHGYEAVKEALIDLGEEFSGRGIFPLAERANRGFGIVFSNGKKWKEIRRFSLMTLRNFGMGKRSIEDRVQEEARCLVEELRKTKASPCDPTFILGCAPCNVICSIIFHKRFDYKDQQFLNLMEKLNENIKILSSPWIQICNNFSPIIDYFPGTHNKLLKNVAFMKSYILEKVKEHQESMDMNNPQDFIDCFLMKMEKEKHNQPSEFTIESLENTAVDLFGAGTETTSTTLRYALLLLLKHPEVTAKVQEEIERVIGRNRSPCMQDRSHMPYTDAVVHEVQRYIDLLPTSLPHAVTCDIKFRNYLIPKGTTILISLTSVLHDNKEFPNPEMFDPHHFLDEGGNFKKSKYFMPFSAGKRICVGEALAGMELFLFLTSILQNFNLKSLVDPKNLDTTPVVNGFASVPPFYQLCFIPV
CYP2D6, sequence (P10635 whole entry): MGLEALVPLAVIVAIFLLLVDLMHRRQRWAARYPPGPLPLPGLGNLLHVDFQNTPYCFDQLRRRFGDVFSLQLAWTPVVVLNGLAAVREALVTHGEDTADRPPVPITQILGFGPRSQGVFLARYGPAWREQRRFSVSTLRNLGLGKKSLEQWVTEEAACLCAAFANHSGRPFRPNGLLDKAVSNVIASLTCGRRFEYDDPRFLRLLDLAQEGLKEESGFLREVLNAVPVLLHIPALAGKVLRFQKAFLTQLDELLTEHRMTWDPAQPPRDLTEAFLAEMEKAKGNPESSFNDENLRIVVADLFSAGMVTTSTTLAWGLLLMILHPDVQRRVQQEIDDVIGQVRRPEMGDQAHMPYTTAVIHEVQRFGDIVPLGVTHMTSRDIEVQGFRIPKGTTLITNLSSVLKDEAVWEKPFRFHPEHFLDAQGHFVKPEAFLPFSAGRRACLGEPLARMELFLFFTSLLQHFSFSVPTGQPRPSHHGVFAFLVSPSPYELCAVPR
CYP1A2, sequence (P05177 whole entry): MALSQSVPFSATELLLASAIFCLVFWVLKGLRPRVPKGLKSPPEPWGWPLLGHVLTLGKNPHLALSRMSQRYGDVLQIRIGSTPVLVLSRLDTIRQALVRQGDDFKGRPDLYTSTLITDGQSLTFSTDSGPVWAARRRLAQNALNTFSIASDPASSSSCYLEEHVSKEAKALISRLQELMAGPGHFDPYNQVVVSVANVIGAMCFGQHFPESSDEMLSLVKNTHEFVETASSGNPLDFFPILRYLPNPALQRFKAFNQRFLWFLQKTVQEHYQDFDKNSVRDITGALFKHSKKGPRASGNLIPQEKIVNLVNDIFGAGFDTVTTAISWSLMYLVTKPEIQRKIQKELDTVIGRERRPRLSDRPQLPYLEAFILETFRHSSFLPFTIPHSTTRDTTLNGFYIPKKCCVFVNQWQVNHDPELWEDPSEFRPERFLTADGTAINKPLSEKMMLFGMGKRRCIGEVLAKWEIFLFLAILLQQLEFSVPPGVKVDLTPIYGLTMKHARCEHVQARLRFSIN
CYP3A4, sequence (P08684 whole entry): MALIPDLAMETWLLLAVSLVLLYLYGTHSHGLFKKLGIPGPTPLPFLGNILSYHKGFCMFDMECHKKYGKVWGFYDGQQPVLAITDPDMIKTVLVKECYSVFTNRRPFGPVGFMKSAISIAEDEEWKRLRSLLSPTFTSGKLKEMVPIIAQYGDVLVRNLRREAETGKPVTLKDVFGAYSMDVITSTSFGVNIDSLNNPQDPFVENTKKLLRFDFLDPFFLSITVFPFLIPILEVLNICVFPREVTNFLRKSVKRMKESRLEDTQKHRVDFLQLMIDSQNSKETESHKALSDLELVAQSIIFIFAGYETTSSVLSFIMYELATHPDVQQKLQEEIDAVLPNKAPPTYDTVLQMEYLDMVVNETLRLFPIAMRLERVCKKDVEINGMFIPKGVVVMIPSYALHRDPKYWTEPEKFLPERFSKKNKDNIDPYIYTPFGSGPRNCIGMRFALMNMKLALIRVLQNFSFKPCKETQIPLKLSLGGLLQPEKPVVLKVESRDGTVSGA
CYP2C19, sequence (P33261 whole entry): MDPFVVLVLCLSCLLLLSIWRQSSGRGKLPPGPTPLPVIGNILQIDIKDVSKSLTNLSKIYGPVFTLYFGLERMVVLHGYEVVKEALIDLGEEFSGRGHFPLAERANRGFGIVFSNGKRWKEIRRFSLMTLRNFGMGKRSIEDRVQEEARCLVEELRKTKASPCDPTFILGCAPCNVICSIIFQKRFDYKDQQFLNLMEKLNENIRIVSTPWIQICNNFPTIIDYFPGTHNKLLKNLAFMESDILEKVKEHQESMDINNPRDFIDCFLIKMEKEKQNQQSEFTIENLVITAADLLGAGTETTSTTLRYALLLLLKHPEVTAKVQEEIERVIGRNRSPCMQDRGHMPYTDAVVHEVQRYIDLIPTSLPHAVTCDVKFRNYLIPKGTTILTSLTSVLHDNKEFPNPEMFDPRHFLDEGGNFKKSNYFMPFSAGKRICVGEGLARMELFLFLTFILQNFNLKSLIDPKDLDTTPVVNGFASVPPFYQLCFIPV

SMILES | IC50 ([1]; Homo sapiens, THP-1, 24 h) [µM] | hepatocyte CLint at 1 μM [2] [µL/min/1e6 cells] | half-life at 1 μM [2] [h] | further results
C[C@]1(O)CC[C@H](CS(=O)(=O)c2ccc(-c3ccc(C#N)cc3Cl)cc2)CC1 [CHMSA-05-B, 2-Chloro-4′-(((trans-4-hydroxy-4-methylcyclohexyl)methyl)sulfonyl)-[1,1′-biphenyl]-4-carbonitrile] | 2.7 | 6.5 | 3.79 | –
C[C@]1(O)CC[C@@H](CS(=O)(=O)c2ccc(-c3ccc(F)cc3F)c(C#N)c2)CC1 [CHMSA-06-A, 2′,4′-difluoro-4-(((cis-4-hydroxy-4-methylcyclohexyl)methyl)sulfonyl)-[1,1′-biphenyl]-2-carbonitrile] | 1.8 | – | – | –
C[C@]1(O)CC[C@H](CS(=O)(=O)c2ccc(-c3ccc(F)cc3F)c(C#N)c2)CC1 [CHMSA-06-B, 2′,4′-Difluoro-4-(((trans-4-hydroxy-4-methylcyclohexyl)methyl)sulfonyl)-[1,1′-biphenyl]-2-carbonitrile] | 4.5 | – | – | –
C[C@]1(O)CC[C@@H](CS(=O)(=O)c2ccc(-c3ccc(C#N)cc3Cl)cc2)CC1 [CHMSA-05-A, 2-chloro-4′-(((cis-4-hydroxy-4-methylcyclohexyl)methyl)sulfonyl)-[1,1′-biphenyl]-4-carbonitrile] | 0.8 | 3.3 | 6.61 | IC50 (CYP3A4): 26.3 µM; IC50 (CYP1A2): > 50 µM; IC50 (CYP2C19): 36.6 µM; IC50 (CYP2C9): 7 µM; IC50 (CYP2D6): > 50 µM
C[C@]1(O)CC[C@H](CS(=O)(=O)c2ccc(-c3ccc(C#N)cc3F)cc2C(F)(F)F)CC1 [CHMSA-02-B] | 0.3 | 10.8 | 2.03 | IC50 (CYP3A4): > 10 µM; potency in the Thp1 monocytic ATP assay (in words) [1]: excellent potency; IC50 (CYP1A2): > 10 µM; IC50 (CYP2C19): > 10 µM; IC50 (CYP2C9): > 10 µM; IC50 (CYP2D6): > 10 µM
O=S(=O)(N[C@H]1CC[C@H](O)CC1)c1ccc(-c2ccc(F)cc2F)cc1 [ABD599, reference compound] | – | 22 | 1.87 | –
C[C@]1(O)CC[C@H](CS(=O)(=O)c2ccc(-c3ccc(C#N)cc3F)cc2)CC1 [CHMSA-01-B, 2-Fluoro-4′-(((trans-4-hydroxy-4-methylcyclohexyl)methyl)sulfonyl)-[1,1′-biphenyl]-4-carbonitrile] | 4.4 | 4.5 | 4.95 | –
C[C@]1(O)CC[C@H](NS(=O)(=O)c2ccc(-c3ccc(F)cc3F)cc2)CC1 [ABD900, reference compound] | – | 6.3 | 3.67 | IC50 [1]: 1.1 µM; hepatocyte CLint at 1 μM (Rat hepatocyte stability): 79 µL/min/1e6 cells; half-life at 1 μM (Rat hepatocyte stability): 0.298 h

The next lines start with results.

IC50 ([1]; Homo sapiens, THP-1, 24 h) [µM] | hepatocyte CLint at 1 μM [2] [µL/min/1e6 cells] | half-life at 1 μM [2] [h] | SMILES | further results
0.3 | 12.1 | 1.87 | C[C@]1(O)CC[C@@H](CS(=O)(=O)c2ccc(-c3ncc(F)cc3F)cc2C(F)(F)F)CC1 [CHMSA-09-A, cis-4-(((4-(3,5-difluoropyridin-2-yl)-2-(trifluoromethyl)phenyl)sulfonyl)methyl)-1-methylcyclohexan-1-ol] | IC50 (CYP3A4): > 25 µM; potency in the Thp1 monocytic ATP assay (in words) [1]: excellent potency; IC50 (CYP1A2): > 25 µM; IC50 (CYP2C19): 25 µM; IC50 (CYP2C9): > 25 µM; IC50 (CYP2D6): > 25 µM
1.8 | < 3.1 | > 7.27 | C[C@]1(O)CC[C@@H](CS(=O)(=O)c2ccc(-c3ccc(C#N)cc3)c(F)c2)CC1 [CHMSA-12-A, 2′-fluoro-4′-(((cis-4-hydroxy-4-methylcyclohexyl)methyl)sulfonyl)-[1,1′-biphenyl]-4-carbonitrile] | metabolic stability (in words) (human hepatocytes): exceptionally good stability
0.5 | 52.9 | 0.417 | C[C@]1(O)CC[C@H](CS(=O)(=O)c2ccc(-c3ncc(F)cc3F)cc2C(F)(F)F)CC1 [CHMSA-09-B, trans-4-(((4-(3,5-Difluoropyridin-2-yl)-2-(trifluoromethyl)phenyl)sulfonyl)methyl)-1-methylcyclohexan-1-ol] | –
1.63 | 30.8 | 0.617 | C[C@]1(O)CC[C@@H](CS(=O)(=O)c2ccc(-c3ccc(Cl)cc3C#N)cc2)CC1 [CHMSA-10-A, 4-chloro-4′-((cis-4-hydroxy-4-methylcyclohexyl)methanesulfonyl)-(1,1′-biphenyl)-2-carbonitrile] | hepatocyte CLint at 1 μM (Rat hepatocyte stability): 149 µL/min/1e6 cells; half-life at 1 μM (Rat hepatocyte stability): 0.178 h
0.5 | 7.8 | 2.87 | C[C@]1(O)CC[C@@H](CS(=O)(=O)c2ccc(-c3ccc(Cl)cc3Cl)cc2)CC1 [CHMSA-11-A, cis-4-(((2′,4′-dichloro-[1,1′-biphenyl]-4-yl)sulfonyl)methyl)-1-methylcyclohexan-1-ol] | IC50 (CYP1A2): > 10 µM; IC50 (CYP2C19): 25 µM; IC50 (CYP2C9): > 10 µM; IC50 (CYP2D6): > 10 µM
0.8 | 13.3 | 1.66 | C[C@]1(O)CC[C@H](CS(=O)(=O)c2ccc(-c3ccc(Cl)cc3Cl)cc2)CC1 [CHMSA-11-B, trans-4-(((2′,4′-Dichloro-[1,1′-biphenyl]-4-yl)sulfonyl)methyl)-1-methylcyclohexan-1-ol] | –
1.3 | – | – | C[C@]1(O)CC[C@@H](CS(=O)(=O)c2ccc(-c3ccc(C#N)cc3)c(Cl)c2)CC1 [CHMSA-07-A, 2′-chloro-4′-(((cis-4-hydroxy-4-methylcyclohexyl)methyl)sulfonyl)-[1,1′-biphenyl]-4-carbonitrile] | –
0.4 | 9.8 | 2.3 | C[C@]1(O)CC[C@H](CS(=O)(=O)c2ccc(-c3ccc(F)cc3F)cc2C(F)(F)F)CC1 [CHMSA-08-B, trans-4-(((2′,4′-Difluoro-3-(trifluoromethyl)-[1,1′-biphenyl]-4-yl)sulfonyl)methyl)-1-methylcyclohexan-1-ol] | IC50 (CYP1A2): > 10 µM; IC50 (CYP2C19): > 25 µM; IC50 (CYP2C9): > 25 µM; IC50 (CYP2D6): > 10 µM
0.2 | 18 | 1.22 | C[C@]1(O)CC[C@@H](CS(=O)(=O)c2ccc(-c3ccc(F)cc3F)cc2C(F)(F)F)CC1 [CHMSA-08-A, cis-4-(((2′,4′-difluoro-3-(trifluoromethyl)-[1,1′-biphenyl]-4-yl)sulfonyl)methyl)-1-methylcyclohexan-1-ol] | potency in the Thp1 monocytic ATP assay (in words) [1]: excellent potency
2.5 | – | – | C[C@]1(O)CC[C@H](CS(=O)(=O)c2ccc(-c3ccc(C#N)cc3)c(Cl)c2)CC1 [CHMSA-07-B, 2′-Chloro-4′-(((trans-4-hydroxy-4-methylcyclohexyl)methyl)sulfonyl)-[1,1′-biphenyl]-4-carbonitrile] | –
